Experimental data published in patent publication US20220213052A1, “INHIBITORS OF RNA-BINDING PROTEINS, COMPOSITIONS THEREOF, AND THERAPEUTIC USES THEROF” (The University of North Carolina at Chapel Hill, priority 2019, published 2022).
Read-outs that look alike come from different tables or passages of the source.

Legend:
[1] = biological target: T1, RNA-binding protein Lin-28 homolog B (LIN28B) (Homo sapiens, UniProt Q6ZN17); experiment: LIN28B FP assay
T1 sequence (Q6ZN17 1-250): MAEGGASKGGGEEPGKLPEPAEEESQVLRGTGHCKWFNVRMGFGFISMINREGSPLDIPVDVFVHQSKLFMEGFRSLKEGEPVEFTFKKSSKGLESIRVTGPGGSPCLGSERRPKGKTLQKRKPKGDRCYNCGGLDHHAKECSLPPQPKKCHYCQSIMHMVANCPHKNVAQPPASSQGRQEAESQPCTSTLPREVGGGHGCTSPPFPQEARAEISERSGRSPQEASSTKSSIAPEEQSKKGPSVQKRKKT
Method: (§1) With the FP assay of HuR-Msi1ARE binding, the inhibition of the HuR-Msi1ARE interaction by various compounds of the present technology was assessed. Similar FP assays for Musashi 2 (Msi2) and for RNA-binding protein Lin-28 homolog B (LIN28B) were also performed on various compounds of the present technology. The results of such assays for HuR are provided in Table 1 alongside the compound structures as well as ID numbers for ease of reference; the results of such assays for Msi1, Msi2, and LIN28B are provided in Table 2.

Musashi 2 (Msi2) = Musashi 2 (Msi2) (Homo sapiens, UniProt Q96DH6); experiment: Msi2 FP assay; type: binding
Chain of Musashi 2 (Msi2) (Q96DH6 whole entry, species assumed): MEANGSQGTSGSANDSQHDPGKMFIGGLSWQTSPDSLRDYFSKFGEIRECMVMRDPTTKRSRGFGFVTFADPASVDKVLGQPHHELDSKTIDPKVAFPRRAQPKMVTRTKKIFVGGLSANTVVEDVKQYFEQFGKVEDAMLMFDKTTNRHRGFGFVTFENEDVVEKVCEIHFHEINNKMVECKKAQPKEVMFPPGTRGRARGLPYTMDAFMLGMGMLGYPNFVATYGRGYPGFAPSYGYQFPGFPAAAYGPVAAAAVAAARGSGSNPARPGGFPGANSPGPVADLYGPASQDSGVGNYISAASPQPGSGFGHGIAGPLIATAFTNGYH
Method: as §1

[2] = tested on: colon cancer cell line RKO; experiment: Cytotoxicity assay (WST-8), RKO; type: cell-based; conditions: 96 h incubation
Method: (§2) The cytotoxicity of various compounds of the present technology in several cancer cell lines (pancreatic cancer cell line MIAPaCa-2, triple-negative breast cancer cell line MDA-MB-231, and colon cancer cell lines HCT116, HCT116 β/W, and RKO) was assessed by a cytotoxicity assay. Cells were seeded in 96-well culture plates (3,000-5,000 cells/well) and treated with titrated compounds in triplicate. After 96 h incubation, cell growth medium was removed and proliferation reagent WST-8 (Sigma) was added to each well and incubated at 37° C. for 1-3 h. Absorbance was then measured with a plate reader at 450 nm with correction at 650 nm. The results were expressed as the percentage of absorbance of treated wells versus that of vehicle control. IC50, the drug concentration causing 50% growth inhibition, was calculated via sigmoid curve fitting using GraphPad Prism 5.0. The results for those compounds tested against MIAPaCa-2 and MDA-MB-231 are provided in Table 1; the results for those compounds tested against colon cancer cell lines HCT116, HCT116 β/W, and RKO are provided in Table 3.

Msi1 = Msi1 (Homo sapiens, UniProt O43347); experiment: Msi1 FP assay; type: binding
Chain of Msi1 (O43347 whole entry, species assumed): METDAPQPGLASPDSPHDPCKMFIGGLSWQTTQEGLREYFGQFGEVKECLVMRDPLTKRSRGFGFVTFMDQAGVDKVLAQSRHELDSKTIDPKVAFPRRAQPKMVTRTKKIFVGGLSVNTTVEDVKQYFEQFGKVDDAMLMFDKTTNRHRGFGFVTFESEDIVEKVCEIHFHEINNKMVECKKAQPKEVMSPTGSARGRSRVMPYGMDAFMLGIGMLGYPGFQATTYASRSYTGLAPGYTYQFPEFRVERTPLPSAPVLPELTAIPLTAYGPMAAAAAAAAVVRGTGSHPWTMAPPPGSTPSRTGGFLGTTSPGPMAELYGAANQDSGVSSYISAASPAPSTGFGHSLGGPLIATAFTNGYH
Method: as §1

[3] = biological target: T2, full-length human HuR protein (Homo sapiens, UniProt Q15717); experiment: FP assay of HuR-Msi1 ARE binding inhibition; conditions: HuR-Msi1 ARE interaction; read-out: HuR Ki via FP assay
T2 construct: full-length human HuR protein was produced by the KU COBRE-PSF Protein Purification Group; made in house
T2 sequence (Q15717 whole entry): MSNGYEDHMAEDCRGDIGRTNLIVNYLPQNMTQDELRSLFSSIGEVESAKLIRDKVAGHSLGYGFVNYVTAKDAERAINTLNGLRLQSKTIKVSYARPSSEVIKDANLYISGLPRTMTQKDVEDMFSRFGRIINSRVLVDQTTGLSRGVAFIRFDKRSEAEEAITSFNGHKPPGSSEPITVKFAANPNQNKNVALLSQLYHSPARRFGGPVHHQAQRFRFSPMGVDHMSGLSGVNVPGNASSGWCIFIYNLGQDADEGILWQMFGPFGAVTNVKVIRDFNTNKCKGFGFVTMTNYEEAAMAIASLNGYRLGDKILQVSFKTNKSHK
Text: A fluorescence polarization (FP)-based binding assay was utilized to assess the inhibition of HuR protein interaction with the ARE site of Msi1 mRNA (“HuR-Msi1^ARE”) by compounds of interest. Briefly, full-length human HuR protein was produced by the KU COBRE-PSF Protein Purification Group and Bcl2, Msi1 and XIAP mRNA sequences (16 nt) were designed based on literature precedent^23,24,31,32. Fluorescein labeled RNAs were purchased from Dharmacon with the following sequences: Msi1 RNA: 5′-[…]-3′-fluorescein; Bcl-2 RNA: 5′-[…]-3′-fluorescein; XIAP RNA: 5′-[…] UGUC-3′-fluorescein, and a 16-nt degenerative RNA with 3′-fluorescein label was used as a negative control.
as §1

[4] = tested on: colon cancer cell line HCT116; experiment: Cytotoxicity assay (WST-8), HCT116; type: cell-based; conditions: Homo sapiens, HCT-116, 96 h incubation
Method: as §2

[5] = tested on: triple-negative breast cancer cell line MDA-MB-231; experiment: Cytotoxicity assay (WST-8), MDA-MB-231; type: cell-based; conditions: Homo sapiens, 96 h incubation
Method: as §2

[6] = tested on: colon cancer cell line SW480; experiment: Cytotoxicity assay (WST-8), SW480; type: cell-based; conditions: Homo sapiens, 96 h incubation
[7] = tested on: colon cancer cell line HCT116 β/W; experiment: Cytotoxicity assay (WST-8), HCT116 β/W; type: cell-based; conditions: Homo sapiens, HCT-116, 96 h incubation
Method: as §2

[8] = tested on: pancreatic cancer cell line MIAPaCa-2; experiment: Cytotoxicity assay (WST-8), MIAPaCa-2; type: cell-based; conditions: Homo sapiens, MIA PaCa-2, 96 h incubation
Method: as §2

[9] = cell marked (RRM1), read-out: Msi2 (Ki) (RRM1)
[10] = cell without (RRM1) mark, read-out: Msi2 (Ki)

| Structure (SMILES) | Ki [1] [µM] | Ki (Musashi 2 (Msi2); [9]) [µM] | Ki (Msi1) [µM] | Ki [3] [µM] | Ki (Musashi 2 (Msi2); [10]) [µM] | IC50 [2] [µM] | IC50 [4] [µM] | IC50 [5] [µM] | IC50 [6] [µM] | IC50 [7] [µM] | IC50 [8] [µM] |
| --- | --- | --- | --- | --- | --- | --- | --- | --- | --- | --- | --- |
| CN(C)c1ccc(C(=O)Nc2ccc3sc(/C=C/C(=O)O)cc3c2)cc1 [KH-36A, (E)-3-(5-(4-(Dimethylamino)benzamido)benzo[b]thiophen-2-yl)acrylic acid] | 1.64 | 0.5 | 0.22 | 0.12 |  | 62.9 | 98.5 | > 100 | > 100 | 99.9 |  |
| CC(C)(C)C(=O)Nc1ccc2sc(/C=C/C(=O)O)cc2c1 [KH-20A, (E)-3-(5-pivalamidobenzo[b]thiophen-2-yl)acrylic acid] | > 20 |  | > 20 | > 20 | > 20 |  |  |  |  |  | > 100 |
| O=C(O)CCc1cc2cc(NC(=O)c3ccc(S(F)(F)(F)(F)F)cc3)ccc2s1 [KH-34A, 3-(5-(4-(pentafluoro-λ^6-sulfanyl)benzamido)benzo[b]thiophen-2-yl)propanoic acid] | > 20 |  | > 20 | 5.8 | > 20 |  |  | 48 |  |  |  |
| CC(C)(C)C(=O)Nc1ccc2sc(/C=C/C(=O)NO)cc2c1 [KH-20, (E)-N-hydroxy-3-(5-pivalamidobenzo[b]thiophen-2-yl)acrylamide] | > 20 |  | > 20 | > 20 | > 20 |  |  |  |  |  | 3.98 |
| CC(C)(C)c1ccc(C(=O)Nc2ccc3sc(/C=C/C(N)=O)cc3c2)cc1 [KH-19C, (E)-N-(2-(3-amino-3-oxoprop-1-en-1-yl)benzo[b]thiophen-5-yl)-4-(tert-butyl)benzamide] | > 20 |  | > 20 | 0.6 | 4.83 |  |  | 8.68 |  |  |  |
| CC(C)(C)c1cccc(C(=O)Nc2ccc3sc(/C=C/C(=O)O)cc3c2)c1 [KH-31A, (E)-3-(5-(3-(tert-Butyl)benzamido)benzo[b]thiophen-2-yl)acrylic acid] | > 20 | 1.36 | 4.6 | 2.27 |  |  |  | 95.3 |  |  |  |
| O=C(CCc1cc2cc(NC(=O)c3ccc(S(F)(F)(F)(F)F)cc3)ccc2s1)NO [KH-34, N-(2-(3-(Hydroxyamino)-3-oxopropyl)benzo[b]thiophen-5-yl)-4-(pentafluoro-X^6-sulfanyl)benzamide] | > 20 |  | > 20 | 1.53 | > 20 |  |  | 3.97 |  |  |  |
| CN(C)c1ccc(C(=O)Nc2ccc3sc(CCC(=O)NO)cc3c2)cc1 [KH-38] | > 20 |  | > 20 | 2.88 | > 20 |  |  | 25.9 |  |  |  |
| CC(C)(C)c1cccc(C(=O)Nc2ccc3sc(/C=C/C(=O)NO)cc3c2)c1 [KH-31, (E)-3-(tert-Butyl)-N-(2-(3-(hydroxyamino)-3-oxoprop-1-en-1-yl)benzo[b]thiophen-5-yl)benzamide] | 3 | 1.3 | 3.89 | 0.47 |  |  |  | 9.74 |  |  |  |
| O=C(O)/C=C/c1cc2cc(NC(=O)c3ccc(C(F)(F)F)cc3)ccc2s1 [KH-32A, (E)-3-(5-(4-(Trifluoromethyl)benzamido)benzo[b]thiophen-2-yl)acrylic acid] | > 20 | 1.68 | 4.36 | 1.6 |  |  |  | > 100 |  |  |  |
| CN(C)c1ccc(C(=O)Nc2ccc3sc(/C=C/C(=O)NO)cc3c2)cc1 [KH-36, (E)-4-(dimethylamino)-N-(2-(3-(hydroxyamino)-3-oxoprop-1-en-1-yl)benzo[b]thiophen-5-yl)benzamide] | 7.1 | 1.5 |  | 0.55 |  | 5.74 | 5.05 | 4.02 | 4.89 | 4 |  |
| CC(C)c1ccc(C(=O)Nc2ccc3sc(CCC(=O)O)cc3c2)cc1 [KH-37A, 3-(5-(4-Isopropylbenzamido)benzo[b]thiophen-2-yl)propanoic acid] | > 20 |  | > 20 | > 20 | > 20 |  |  | > 100 |  |  |  |
| Cc1ccc(C(=O)Nc2ccc3sc(CCC(=O)NO)cc3c2)cc1 [KH-27, N-(2-(3-(hydroxyamino)-3-oxopropyl)benzo[b]thiophen-5-yl)-4-methylbenzamide] | > 20 |  | > 20 | 3.72 | > 20 |  |  | 9.34 |  |  |  |
| CC(C)(C)c1ccc(C(=O)Nc2ccc3sc(/C=C/C(=O)NN)cc3c2)cc1 [KH-19E, (E)-4-(tert-butyl)-N-(2-(3-hydrazinyl-3-oxoprop-1-en-1-yl)benzo[b]thiophen-5-yl)benzamide] | > 20 |  | > 20 | 0.19 | > 20 |  |  | 28.4 |  |  |  |
| O=C(O)/C=C/c1cc2cc(NC(=O)c3ccc(S(F)(F)(F)(F)F)cc3)ccc2s1 [KH-33A, (E)-3-(5-(4-(pentafluoro-λ^6-sulfanyl)benzamido)benzo[b]thiophen-2-yl)acrylic acid] | > 20 | 1.03 | 2.63 | 1.2 |  |  |  | 50.1 |  |  |  |

Continued, in another order:

| Ki [1] [µM] | Ki (Musashi 2 (Msi2); [9]) [µM] | Ki (Msi1) [µM] | Ki [3] [µM] | Ki (Musashi 2 (Msi2); [10]) [µM] | Structure (SMILES) | IC50 [2] [µM] | IC50 [4] [µM] | IC50 [5] [µM] | IC50 [6] [µM] | IC50 [7] [µM] | IC50 [8] [µM] |
| --- | --- | --- | --- | --- | --- | --- | --- | --- | --- | --- | --- |
| > 20 |  | > 20 | 4.19 | > 20 | CC(C)(C)c1cccc(C(=O)Nc2ccc3sc(CCC(=O)NN)cc3c2)c1 [KH-30E] |  |  | 22.7 |  |  |  |
| > 20 |  | > 20 | 7 | > 20 | CC(C)(C)c1ccc(C(=O)Nc2ccc3sc(CCC(N)=O)cc3c2)cc1 [KH-22C, N-(2-(3-amino-3-oxopropyl)benzo[b]thiophen-5-yl)-4-(tert-butyl)benzamide] |  |  | 2.87 |  |  |  |
| > 20 |  | > 20 | 1.06 | > 20 | CC(C)(C)c1ccc(C(=O)Nc2ccc3sc(CCC(=O)NN)cc3c2)cc1 [KH-22E, 4-(tert-butyl)-N-(2-(3-hydrazinyl-3-oxopropyl)benzo[b]thiophen-5-yl)benzamide] |  |  | 8.56 |  |  |  |
| > 20 |  | > 20 | 4.98 | > 20 | CC(C)(C)c1cccc(C(=O)Nc2ccc3sc(CCC(=O)NO)cc3c2)c1 [KH-30, 3-(tert-Butyl)-N-(2-(3-(hydroxyamino)-3-oxopropyl)benzo[b]thiophen-5-yl)benzamide] |  |  | 5.51 |  |  |  |
| > 20 |  | > 20 | 3.83 | > 20 | CC(C)(C)c1ccc(C(=O)Nc2ccc3sc(CCC(=O)O)cc3c2)cc1 [KH-22A, 3-(5-(4-(tert-Butyl)benzamido)benzo[b]thiophen-2-yl)propanoic acid] |  |  | 19.8 |  |  |  |
| > 20 |  | > 20 | 0.83 | > 20 | CC(C)(C)c1ccc(C(=O)Nc2ccc3sc(CCC(=O)NO)cc3c2)cc1 [KH-22, 4-(tert-Butyl)-N-(2-(3-(hydroxyamino)-3-oxopropyl)benzo[b]thiophen-5-yl)benzamide] |  |  | 3.48 |  |  |  |
| > 20 |  | > 20 | 3.56 | > 20 | CN(C)c1ccc(C(=O)Nc2ccc3sc(CCC(=O)NN)cc3c2)cc1 [KH-38E] |  |  | 57.6 |  |  |  |
| > 20 |  | > 20 | 5.18 | > 20 | CC(C)c1ccc(C(=O)Nc2ccc3sc(CCC(=O)NN)cc3c2)cc1 [KH-37E] |  |  | > 100 |  |  |  |
